According to patent publication US20160038519A1, “ADMINISTRATION OF KARENITECIN FOR THE TREATMENT OF ADVANCED OVARIAN CANCER, INCLUDING CHEMOTHERAPY-RESISTANT AND/OR THE MUCINOUS ADENOCARCINOMA SUB-TYPES” (BioNumerik Pharmaceuticals, Inc., priority 2014, published 2016):
Like-named read-outs stand apart in the source and are kept apart here.

What was measured:
solid tumors = conditions: for Time on trial with no evidence of progressive disease: oral
Experimental: A Phase I clinical trial (the “Oral Karenitecin Phase I Trial”) was performed to determine the maximum tolerated dose (MTD) of oral Karenitecin in subjects with solid tumors given in a dose-escalated manner (starting at 0.5 mg/m^2) and administered 3-times per week (MWF or TTS) for 3 consecutive weeks followed by a one-week treatment rest.
In Stage I, subjects received Karenitecin as a single oral dose 3 times per week for 3 consecutive weeks followed by a one-week treatment rest. In Stage 1, some of subjects underwent pharmacokinetic sampling, and first received a single i.v. dose of Karenitecin (at the appropriate dosage level) followed by oral Karenitecin 4 to 7 days following the i.v. dose on a MWF or TTS schedule. Patients then received oral Karenitecin for all subsequent treatments.
In Stage 2, Karenitecin was administered in a dose-escalated manner to approximately 16 subjects with solid tumors in order to determine the maximum tolerated dose (MTD). The initial dose escalation involved cohorts of one new subject per dose level. The starting dose was 0.5 mg/m^2 and dose escalation proceeded in 0.5 mg/m^2 increments. One-subject cohorts were utilized until the occurrence of a dose-limiting toxicity (DLT) or NCI CTCAE≧grade 2 toxicity was observed during the DLT observation period. Patients in Stage 2 received oral Karenitecin at the appropriate dose level on a MTWTF schedule for three (3) consecutive weeks, followed by a one-week rest period.

[1] = Toxicology study of single daily doses given orally and intravenously for five consecutive days; type: in vivo; conditions: oral and i.v. single daily doses
[2] = test system: stage III/IV advanced epithelial ovarian cancer resistant or refractory to platinum- and taxane-based regimens; conditions: for CA-125 marker level, low: after reduction; for CA-125 marker level, high: before reduction
Experimental: Such Phase III clinical trial is sometimes referred to herein as the “Karenitecin Phase III Trial”.
The Primary Endpoint of the disclosed Karenitecin Phase III Trial was Progression Free Survival (“PFS”); which was defined as the time period from the date of randomization to the date of first radiographically-documented Progressive Disease (“PD”) or date of death due to any cause, taking the event date that occurs first. The date of PD was determined by radiographical objective disease (RECIST) measurement. The Secondary Endpoints of the disclosed Karenitecin Phase III Trial included: (i) Overall Survival (hereinafter “OS”), defined as the time from the date of randomization to the date of death due to any cause; (ii) Incidence of anemia, defined as the proportion of subjects who experience ≧grade 3 anemia based on National Cancer Institute Common Terminology Criteria for Adverse Events (NCI-CTCAE) criteria at any time post-baseline after receiving study treatment; (iii) Incidence of neutropenia (including febrile neutropenia), defined as the proportion of subjects who experience ≧grade 3 neutropenia based on NCI-CTCAE criteria at any time post-baseline after receiving study treatment; and (iv) Incidence of thrombocytopenia, defined as the proportion of subjects who experience ≧grade 3 thrombocytopenia based on NCI-CTCAE criteria at any time post-baseline after receiving study treatment.
Approximately 80 study centers participated in this clinical study. The primary endpoint was Progression Free Survival (PFS); defined as the time period from the date of randomization to the date of first radiographically documented progressive disease or disease progression (“PD”) or date of death due to any cause, taking the event date that occurs first.
The primary endpoint was Progression Free Survival (PFS); defined as the time period from the date of randomization to the date of first radiographically documented progressive disease (PD) or date of death due to any cause, taking the event date that occurs first. The date of PD was determined by radiographically objective disease (RECIST) measurement.
• Overall Survival (OS), defined as the time from the date of randomization to the date of death due to any cause. • Incidence of anemia, defined as the proportion of subjects who experience ≧grade 3 anemia based on National Cancer Institute Common Terminology Criteria for Adverse Events (NCI-CTCAE) criteria at any time post-baseline after receiving study treatment. • Incidence of neutropenia (including febrile neutropenia), defined as the proportion of subjects who experience ≧grade 3 neutropenia based on NCI-CTCAE criteria at any time post-baseline after receiving study treatment. • Incidence of thrombocytopenia, defined as the proportion of subjects who experience ≧grade 3 thrombocytopenia based on NCI-CTCAE criteria at any time post-baseline after receiving study treatment.
During this period, subjects received either Karenitecin (1.0 mg/m^2/day administered as a 60-minute intravenous infusion) or Topotecan (1.5 mg/m^2/day administered as a 30-minute intravenous infusion) daily for 5 consecutive days, every 21 days (one treatment cycle=21 days).

[3] = Adenocarcinoma (grade ≧2) not otherwise specified, P-value=0.3700
[4] = ECOG Performance Status 0, P-value=0.0249
[5] = ECOG Performance Status 2, P-value=0.7481
[6] = FIGO Stage IIIB, P-value=0.6225
[7] = FIGO Stage IV, first 254 PFS events, P-value=0.0260
[8] = Histological Stage: G1-well differentiated, P-value=0.8561
[9] = Histological Stage: G2-moderately differentiated, P-value=0.2982
[10] = Histopathology class: serous adenocarcinoma, P-value=0.2829
[11] = Mucinous adenocarcinoma subtype
[12] = Ovary as primary site of disease, P-value=0.2606
[13] = overall trial population, P-value=0.261

## CC[C@@]1(O)C(=O)OCc2c1cc1n(c2=O)Cc2c-1nc1ccccc1c2CC[Si](C)(C)C [Karenitecin, (4S)-4-ethyl-4-hydroxy-11-[2-(trimethylsilyl)ethyl]-1H-pyrano[3′:4′:6,7]indolizino[1,2-b]quinoline-3,14(4H,12H)-dione]
Solid tumors; in vivo, po
  Tolerability of oral administration: generally well-tolerated
Solid tumors; a patient with advanced ovarian cancer
  Time on trial with no evidence of progressive disease: approximately 16 months
Solid tumors; a patient with breast cancer
  Time on trial with no evidence of progressive disease: approximately 19.5 months
Solid tumors; a patient with carcinoma of the parotid gland
  Time on trial with no evidence of progressive disease: approximately 12 months
Solid tumors; a patient with colorectal cancer
  Time on trial with no evidence of progressive disease: approximately 8 months
Solid tumors; a patient with leiomyosarcoma
  Time on trial with no evidence of progressive disease: approximately 7 months
Solid tumors; a patient with melanoma
  Time on trial with no evidence of progressive disease: approximately 15 months
Solid tumors; a patient with neuroendocrine cancer
  Time on trial with no evidence of progressive disease: approximately 23 months
Solid tumors; a patient with non-small cell lung cancer
  Time on trial with no evidence of progressive disease: approximately 36 months
Solid tumors; a patient with pancreatic cancer
  Time on trial with no evidence of progressive disease: approximately 7 months
Solid tumors; a patient with peritoneal papillary adenocarcinoma cancer
  Time on trial with no evidence of progressive disease: approximately 8 months
Solid tumors; a patient with prostate cancer
  Time on trial with no evidence of progressive disease: approximately 7 months
Solid tumors; a patient with refractory small cell cancer
  Time on trial with no evidence of progressive disease: approximately 6 months
Solid tumors; a patient with sarcoma
  Time on trial with no evidence of progressive disease: approximately 9 months
[1]
  Tolerability of oral doses: good tolerability
[2]; Adenocarcinoma (grade ≧2) not otherwise specified, P-value 0.7893
  Overall survival hazard ratio: 0.898
[2]; [3]
  Median PFS advantage in favor of Karenitecin: 2.7 month
  PFS Hazard Ratio: 0.684
[2]; Best response SD after 6 cycles in a first-line setting, P-value=0.9908
  PFS Hazard Ratio: 0.992
[2]; Best response stable disease (SD) after 6 cycles in a first-line setting, P-value=0.9908
  Median PFS advantage in favor of Karenitecin: 3 month
[2]; [4]
  Median PFS advantage in favor of Karenitecin: 3.9 month
  PFS Hazard Ratio: 0.662
[2]; [5]
  Median PFS advantage in favor of Karenitecin: 1.5 month
  PFS Hazard Ratio: 0.896
[2]; [6]
  Median PFS advantage in favor of Karenitecin: 4.2 month
  PFS Hazard Ratio: 0.722
[2]; FIGO Stage IV, P-value 0.4516
  Overall survival hazard ratio: 0.892
[2]; FIGO Stage IV, P-value=0.0556
  Median PFS advantage in favor of Karenitecin: 2.7 month
  PFS Hazard Ratio: 0.741
[2]; [7]
  Median PFS advantage in favor of Karenitecin: 2.8 month
  PFS Hazard Ratio: 0.669
[2]; Histological Stage: G1-well differentiated, P-value 0.9612
  Overall survival hazard ratio: 0.9674
[2]; [8]
  Median PFS advantage in favor of Karenitecin: 1.7 week
  PFS Hazard Ratio: 0.904
[2]; [9]
  Median PFS advantage in favor of Karenitecin: 2.5 month
  PFS Hazard Ratio: 0.835
[2]; Histopathology Class: Undifferentiated carcinoma, P-value 0.6426
  Overall survival hazard ratio: 0.701
[2]; Histopathology class: Mucinous adenocarcinoma
  Median PFS advantage in favor of Karenitecin (as compared with Topotecan): 2 month
[2]; [10]
  Median PFS advantage in favor of Karenitecin: 1.6 month
  PFS Hazard Ratio: 0.873
[2]; [11]
  Median PFS: approximately 17.8 weeks
  Overall survival (OS), third quartile: 35 months
[2]; Mucinous adenocarcinoma subtype, P-value 0.7321
  Overall survival hazard ratio (Karenitecin vs Topotecan): 0.841
[2]; [12]
  Median PFS advantage in favor of Karenitecin: 6.5 week
  PFS Hazard Ratio: 0.885
[2]; another patient
  CA-125 marker level, low: 24 U/ML
  CA-125 marker level, high: 237 U/ML
[2]; female, human, in vivo
  Reduction of grade 4 neutropenia in comparison to the Topotecan arm: 38.2%
  Reduction of number of grade 3 or 4 anemia events in comparison to the Topotecan arm: 27.3%
  Reduction of number of grade 3 or 4 thrombocytopenia events in comparison to the Topotecan arm: 37.4%
[2]; in vivo
  Safety concerns noted by the independent DSMB: no safety concerns
[2]; one patient
  CA-125 marker level, high: 2072 U/ML
[2]; overall trial population, IRC-determined
  Median PFS: approximately 24.3 weeks
[2]; [13]
  Median PFS advantage in favor of Karenitecin (as compared with Topotecan): greater than 6 week
  PFS Hazard Ratio (Karenitecin vs Topotecan): 0.885
[2]; refractory or resistant and/or mucinous subpopulation
  Median PFS: approximately 26.9 weeks
[2]; refractory or resistant and/or mucinous subpopulation, first 254 subjects, P-value=0.0849
  PFS Hazard Ratio (Karenitecin vs Topotecan): 0.770
[2]; refractory or resistant to platinum/taxane and/or mucinous sub-type subpopulation, first 254 subjects, P-value=0.0849
  Median PFS in favor of Karenitecin (as compared with Topotecan): approximately 8.2 weeks
[2]; resistant subject sub-population, P-value=0.144
  PFS Hazard Ratio: 0.822
[2]; same patient
  CA-125 marker level, low: 167 U/ML
